{"source": "paper PMC7686313", "about": "“Phase 1 study of mTORC1/2 inhibitor sapanisertib (TAK-228) in advanced solid tumours, with an expansion phase in renal, endometrial or bladder cancer” (British Journal of Cancer, 2020)", "key": {"advanced solid tumours": {"test_system": "advanced solid tumours", "assay": "Tumour response according to RECIST v1.1, advanced solid tumours", "format": "in vivo, human", "conditions": "for Duration of partial response (PR): dose-escalation"}, "bladder cancer": {"test_system": "bladder cancer", "assay": "Tumour response according to RECIST v1.1, expansion phase, bladder cancer", "format": "in vivo, human", "conditions": "expansion Bladder cancer (n = 13)", "source_text": "Patients could be considered for enrolment in one of three disease-specific cohorts: (1) advanced or recurrent endometrial adenocarcinoma with disease progression following ≥1 prior chemotherapy regimen; (2) advanced/metastatic urothelial cancer (carcinoma of the bladder, ureter and/or renal pelvis), progressive after ≥1 prior therapy in the metastatic/unresectable setting; (3) advanced RCC after failure of ≥1 prior antivascular endothelial growth factor therapy with no prior TORC1 inhibitor therapy, or progressed on treatment with TORC1 inhibitor therapy."}, "[1]": {"test_system": "p4EBP1, pS6, pPRAS40 and pNDRG1 (TORC1/2 biomarkers)", "assay": "Pharmacodynamics in paired tumour biopsies", "format": "in vivo, human", "conditions": "five patients with paired tumour samples; baseline vs cycle 1, week 2", "method": "The tissue PK and PD of sapanisertib were investigated in skin and tumour biopsies. During dose escalation, 3-mm core skin biopsies were collected predose and on any day from 8–15 (3 h postdose) of cycle 1 for immunohistochemistry (IHC) assessment of mTORC1 downstream effects (p4EBP1, pS6) and pNDRG1 (Mosaic Laboratories, Lake Forest, CA). […] Archival tumour tissues for assessment of prognostic markers were collected at baseline.\nDuring dose-escalation, the PD effect of sapanisertib on downstream effectors of TORC1 (p4EBP1 and pS6) and TORC2 (pPRAS40 and pNDRG1) was measured in skin-tissue biopsies from 88 patients collected at baseline and days 8–15 (3 h postdose) of cycle 1. […] PD data in tumour tissue were limited due to the small number of samples. For the five patients with paired tumour samples available for review (biopsies at baseline and cycle 1, week 2), the levels of p4EBP1, pS6, pPRAS40 and pNDRG1 decreased after sapanisertib treatment (Supplementary Fig. 4)."}, "[2]": {"design": "method as in PMID 26800393", "conditions": "advanced haematological malignancies, cited from earlier work"}, "[3]": {"conditions": "dose-escalation QD 2–7 mg (n = 21)"}, "[4]": {"conditions": "dose-escalation QD × 3d 6–20 mg (n = 27)"}, "[5]": {"conditions": "dose-escalation QD × 5d 7–13 mg (n = 18)"}, "[6]": {"conditions": "dose-escalation QW 7–40 mg (n = 25)"}}, "note": "Read-outs that look alike come from different tables or passages of the source.", "data": [{"smiles": "CC(C)n1nc(-c2ccc3oc(N)nc3c2)c2c(N)ncnc21", "note": "[Sapanisertib]", "values": [{"measurement": "Patients achieving PR", "setting": "advanced solid tumours; both phases", "value": "nine"}, {"measurement": "Patients with CR", "setting": "advanced solid tumours; both phases, 40 mg QW", "value": "One"}, {"measurement": "Best overall response CR", "setting": "advanced solid tumours; [3]", "value": "0 n (%)"}, {"measurement": "Best overall response PD", "setting": "advanced solid tumours; [3]", "value": "10 (48) n (%)"}, {"measurement": "Best overall response PR", "setting": "advanced solid tumours; [3]", "value": "0 n (%)"}, {"measurement": "Best overall response SD < 6 months", "setting": "advanced solid tumours; [3]", "value": "9 (43) n (%)"}, {"measurement": "Best overall response SD ≥ 6 months", "setting": "advanced solid tumours; [3]", "value": "2 (10) n (%)"}, {"measurement": "CBR (CR + PR + SD ≥ 6 months)", "setting": "advanced solid tumours; [3]", "value": "2 (10) n (%)"}, {"measurement": "ORR (CR + PR)", "setting": "advanced solid tumours; [3]", "value": "0 n (%)"}, {"measurement": "Best overall response CR", "setting": "advanced solid tumours; [4]", "value": "0 n (%)"}, {"measurement": "Best overall response PD", "setting": "advanced solid tumours; [4]", "value": "14 (52) n (%)"}, {"measurement": "Best overall response PR", "setting": "advanced solid tumours; [4]", "value": "0 n (%)"}, {"measurement": "Best overall response SD < 6 months", "setting": "advanced solid tumours; [4]", "value": "12 (44) n (%)"}, {"measurement": "Best overall response SD ≥ 6 months", "setting": "advanced solid tumours; [4]", "value": "1 (4) n (%)"}, {"measurement": "CBR (CR + PR + SD ≥ 6 months)", "setting": "advanced solid tumours; [4]", "value": "1 (4) n (%)"}, {"measurement": "ORR (CR + PR)", "setting": "advanced solid tumours; [4]", "value": "0 n (%)"}, {"measurement": "Best overall response CR", "setting": "advanced solid tumours; [5]", "value": "0 n (%)"}, {"measurement": "Best overall response PD", "setting": "advanced solid tumours; [5]", "value": "12 (67) n (%)"}, {"measurement": "Best overall response PR", "setting": "advanced solid tumours; [5]", "value": "1 (6) n (%)"}, {"measurement": "Best overall response SD < 6 months", "setting": "advanced solid tumours; [5]", "value": "4 (22) n (%)"}, {"measurement": "Best overall response SD ≥ 6 months", "setting": "advanced solid tumours; [5]", "value": "1 (6) n (%)"}, {"measurement": "CBR (CR + PR + SD ≥ 6 months)", "setting": "advanced solid tumours; [5]", "value": "2 (11) n (%)"}, {"measurement": "ORR (CR + PR)", "setting": "advanced solid tumours; [5]", "value": "1 (6) n (%)"}, {"measurement": "Best overall response CR", "setting": "advanced solid tumours; [6]", "value": "0 n (%)"}, {"measurement": "Best overall response PD", "setting": "advanced solid tumours; [6]", "value": "13 (52) n (%)"}, {"measurement": "Best overall response PR", "setting": "advanced solid tumours; [6]", "value": "2 (8) n (%)"}, {"measurement": "Best overall response SD < 6 months", "setting": "advanced solid tumours; [6]", "value": "9 (36) n (%)"}, {"measurement": "Best overall response SD ≥ 6 months", "setting": "advanced solid tumours; [6]", "value": "1 (4) n (%)"}, {"measurement": "CBR (CR + PR + SD ≥ 6 months)", "setting": "advanced solid tumours; [6]", "value": "3 (12) n (%)"}, {"measurement": "ORR (CR + PR)", "setting": "advanced solid tumours; [6]", "value": "2 (8) n (%)"}, {"measurement": "Duration of partial response (PR)", "setting": "advanced solid tumours; one patient with carcinoid tumour receiving 10 mg QD × 5dQW", "value": "> 32", "unit": "months"}, {"measurement": "Duration of partial response (PR)", "setting": "advanced solid tumours; two patients with RCC receiving 15 mg QW and 40 mg QW", "value": "> 32", "unit": "months"}, {"measurement": "Best overall response CR", "setting": "bladder cancer", "value": "0 n (%)"}, {"measurement": "Best overall response PD", "setting": "bladder cancer", "value": "8 (62) n (%)"}, {"measurement": "Best overall response PR", "setting": "bladder cancer", "value": "0 n (%)"}, {"measurement": "Best overall response SD < 6 months", "setting": "bladder cancer", "value": "4 (31) n (%)"}, {"measurement": "Best overall response SD ≥ 6 months", "setting": "bladder cancer", "value": "1 (8) n (%)"}, {"measurement": "CBR (CR + PR + SD ≥ 6 months)", "setting": "bladder cancer", "value": "1 (8) n (%)"}, {"measurement": "ORR (CR + PR)", "setting": "bladder cancer", "value": "0 n (%)"}, {"measurement": "Levels of p4EBP1, pS6, pPRAS40 and pNDRG1 in tumour", "setting": "[1]", "value": "decreased"}, {"measurement": "MTD", "setting": "[2]; QD dosing", "value": 4, "unit": "mg"}, {"measurement": "MTD", "setting": "[2]; QD × 3dQW", "value": 9, "unit": "mg"}]}]}
